# Values of other authors, collected in US20240398797A1, “COMBINATION THERAPIES FOR METASTATIC CASTRATION-RESISTANT PROSTATE CANCER” (Janssen Pharmaceutica NV, priority 2021, published 2024).
# Assays:
# [1] = tested on: non-castrate hormone-sensitive and bicalutamide-resistant human prostate cancer xenograft models
# T877A AR mutant = biological target: T1, T877A AR mutant (Homo sapiens, UniProt P10275, T878A)
# T1 sequence (P10275 1-920 T878A): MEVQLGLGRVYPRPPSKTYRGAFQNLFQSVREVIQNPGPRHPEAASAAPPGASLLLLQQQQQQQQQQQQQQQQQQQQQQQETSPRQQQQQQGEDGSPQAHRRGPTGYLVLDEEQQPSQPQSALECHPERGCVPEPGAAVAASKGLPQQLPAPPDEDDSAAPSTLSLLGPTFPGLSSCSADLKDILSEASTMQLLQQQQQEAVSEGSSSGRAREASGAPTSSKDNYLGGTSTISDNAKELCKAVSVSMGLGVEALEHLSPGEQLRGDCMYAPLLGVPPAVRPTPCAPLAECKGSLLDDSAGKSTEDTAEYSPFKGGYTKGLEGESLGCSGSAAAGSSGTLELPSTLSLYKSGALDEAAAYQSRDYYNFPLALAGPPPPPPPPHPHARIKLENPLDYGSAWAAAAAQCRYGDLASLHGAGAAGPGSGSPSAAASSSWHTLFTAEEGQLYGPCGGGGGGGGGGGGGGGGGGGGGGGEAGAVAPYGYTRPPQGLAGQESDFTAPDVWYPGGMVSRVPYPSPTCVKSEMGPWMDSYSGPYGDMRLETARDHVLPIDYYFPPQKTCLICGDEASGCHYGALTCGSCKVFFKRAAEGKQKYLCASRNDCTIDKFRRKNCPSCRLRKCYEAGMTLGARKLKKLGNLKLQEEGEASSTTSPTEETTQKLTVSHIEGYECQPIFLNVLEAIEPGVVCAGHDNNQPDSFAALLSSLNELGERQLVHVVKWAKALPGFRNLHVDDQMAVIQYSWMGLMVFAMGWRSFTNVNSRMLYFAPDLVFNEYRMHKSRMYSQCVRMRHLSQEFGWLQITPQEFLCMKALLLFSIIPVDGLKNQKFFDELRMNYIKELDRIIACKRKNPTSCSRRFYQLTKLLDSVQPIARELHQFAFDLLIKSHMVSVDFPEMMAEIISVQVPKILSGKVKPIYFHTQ
SMILES,tumor regression [1],activity at AR mutant (T877A AR mutant)
"CNC(=O)c1ccc(N2C(=S)N(c3cnc(C#N)c(C(F)(F)F)c3)C(=O)C23CCC3)cc1F [Apalutamide, 4-[7-(6-cyano-5-trifluoromethylpyridin-3-yl)-8-oxo-6-thioxo-5,7-diazaspiro [3.4]oct-5-yl]-2-fluoro-N-methylbenzamide]",partial or complete tumor regression,
CC(C)(O)C(=O)Nc1ccc([N+](=O)[O-])c(C(F)(F)F)c1 [hydroxyflutamide],,act as AR agonists
